3 compounds from US9139796B2, “Methods of and formulations for reducing and inhibiting the growth of the concentration of microbes in water-based fluids and systems used with them” (Dow Global Technologies LLC, priority 2007, dated 2015) can be followed below.

In assay [1] the test system is oil/gas field-isolated sulfate reducing bacteria (SRB). Put plainly: Biocidal activity against oil/gas field-isolated sulfate reducing bacteria under anaerobic environment in deaerated salt solution. Type of assay: cell-based. Here is the method:
(§1) A sterile 0.85% NaCl solution is contaminated with bacterial inoculums at final bacterial concentrations of ˜10^7 CFU/mL. At day zero, either oxazolidine compound (BIOBAN™ CS-1135, 78% 4,4-dimethyloxazolidine in water, The Dow Chemical Company, or BIOBAN™ CS-1246, 97.5% 7-ethylbicyclooxazolidine in water, The Dow Chemical Company), THPS (AQUCAR™ THPS 75, 75% THPS in water, The Dow Chemical Company), or a combination of oxazolidine compound and THPS is added and the solution mixed well to provide a desired final concentration. […]
The protocol used to test against oil/gas field-isolated sulfate reducing bacteria (SRB) is performed as described above, but under anaerobic environment (Bactron III anaerobic chamber) and using a deaerated sterile salt solution (1.2490 g NaCl, 2.9290 g NaHCO3, 0.1910 g Na2CO3, 0.0060 g Na2SO4, 0.033 g CaCl2, and 0.0590 g MgCl2.6H2O in 1 L water) instead of 0.85% NaCl solution.
(§2) The testing protocol described in Example 1 is used for aerobic bacteria and anaerobic sulfate reducing bacteria.

Assay [2] deals with Staphylococcus aureus ATCC 6538, Klebsiella pneumoniae ATCC 8308, Bacillus subtillus ATCC 8473, Escherichia coli ATCC 11229. Description: Biocidal activity against standard aerobic bacterial strains in 0.85% NaCl solution, live count by serial dilution. It is filed as cell-based. The following applies: biocide alone; average for four standard aerobic bacteria; ~10^7 CFU/mL, 37° C. Here is the method: as §1
The testing protocol described above is used for the standard bacterial strains Staphylococcus aureus ATCC 6538, Klebsiella pneumoniae ATCC 8308, Bacillus subtillus ATCC 8473, Escherichia coli ATCC 11229.
as §2

[3] abbreviates: biocide alone, field anaerobic SRB, anaerobic chamber.

Where two headings read alike, the source gives them in different places.

Consider `CC1(C)COCN1` [4,4-dimethyloxazolidine], for which the “Concentration required to achieve at least 3 log bacterial reduction in 1 hr” value in assay [1] (setting [3]) is on record as 1000 ppm, active; in assay [2], 272.04 ppm, active.

As to `CCC12COCN1COC2` [7-ethylbicyclooxazolidine, 5-ethyl-1-aza-3,7-dioxabicyclo[3.3.0]octane], the “Concentration required to achieve at least 3 log bacterial reduction in 1 hr” value was >1000 ppm, active in assay [1] (setting [3]) and 272.04 ppm, active in assay [2].

For the compound “tetrakis(hydroxymethyl)phosphonium sulfate [THPS]”, the “Concentration required to achieve at least 3 log bacterial reduction in 1 hr” value in assay [1] is listed as 33.35 ppm, active; in assay [2] it was 44.49 ppm, active.
